According to US8962842B2, “2-pyridone antimicrobial compositions” (priority 2010, dated 2015):
Values after ≈ are worked out from the molar mass of the structure shown. Like-named read-outs stand apart in the source and are kept apart here.

Assays:
[1] = test system: Acinetobacter baumannii (12 strains); assay: MIC range, broader panel of Quotient Bioresearch strains (Table 4); format: cell-based; settings: for MIC50: read-out: MIC Range Median, Acinetobacter baumannii (12 strains)
[2] = test system: Burkholderia cepacia (5 strains); assay: as above; format: cell-based; settings: for MIC50: read-out: MIC Range Median, Burkholderia cepacia (5 strains)
[3] = test system: Pseudomonas aeruginosa (12 strains); assay: as above; format: cell-based; settings: for MIC50: read-out: MIC Range Median, Pseudomonas aeruginosa (12 strains)
[4] = test system: Haemophilus influenza (5 strains); assay: as above; format: cell-based, Haemophilus influenzae; settings: for MIC50: 16 h, Median of the strain panel
[5] = test system: Klebsiella pneumonia (4 strains); assay: as above; format: cell-based; settings: Klebsiella pneumoniae; for MIC50: read-out: MIC Range Median, Klebsiella pneumonia (4 strains)
[6] = test system: Staphylococcus aureus (16 strains); assay: MIC range, broader panel of Quotient Bioresearch strains (Table 3); settings: for MIC50: read-out: MIC Range Median, Staphylococcus aureus (16 strains)
[7] = test system: Enterococcus faecalis (5 strains); assay: as above; settings: for MIC50: read-out: MIC Range Median, Enterococcus faecalis (5 strains)
[8] = test system: Group C Streptococcus (4 strains); assay: as above; settings: for MIC50: read-out: MIC Range Median, Group C Streptococcus (4 strains)
[9] = test system: Escherichia coli (6 strains); assay: MIC range, broader panel of Quotient Bioresearch strains (Table 4); format: cell-based; settings: for MIC50: read-out: MIC Range Median, Escherichia coli (6 strains)
[10] = test system: Streptococcus pyogenes (4 strains); assay: MIC range, broader panel of Quotient Bioresearch strains (Table 3); settings: for MIC50: read-out: MIC Range Median, Streptococcus pyogenes (4 strains)
[11] = test system: Enterococcus faecium (3 strains); assay: as above; settings: for MIC50: read-out: MIC Range Median, Enterococcus faecium (3 strains)
[12] = test system: Streptococcus pneumonia (5 strains); assay: as above; settings: Streptococcus pneumoniae; for MIC50: read-out: MIC Range Median, Streptococcus pneumonia (5 strains)
[13] = Mouse pharmacokinetics, intravenous or oral 10 mg/kg (Table 9); format: in vivo; settings: mice, plasma; for half-life: read-out: Elimination Half life (converted); for bioavailability: p.o. vs i.v.
Method: Groups of 21 mice were treated with select examples at 10 mg/kg. Mice were treated either intravenously or orally (by gavage). At predetermined time points (0.25, 0.5, 1, 2, 4, 8 and 24 hours), 3 mice were sacrificed and blood samples drawn by cardiac puncture. Plasma was obtained by centrifugation and stored at −80° C. Plasma samples were analyzed by LC-MS for remaining amounts of compounds.

[14] = read-out: MIC Range High, Burkholderia cepacia (5 strains)
[15] = read-out: MIC Range Low, Burkholderia cepacia (5 strains)
[16] = High of the strain panel, read-out: MIC Range High, Haemophilus influenza (5 strains)
[17] = Low of the strain panel, read-out: MIC Range Low, Haemophilus influenza (5 strains)
[18] = read-out: MIC Range High, Staphylococcus aureus (16 strains)
[19] = read-out: MIC Range Low, Staphylococcus aureus (16 strains)
[20] = read-out: MIC Range High, Enterococcus faecalis (5 strains)
[21] = read-out: MIC Range Low, Enterococcus faecalis (5 strains)
[22] = read-out: MIC Range High, Group C Streptococcus (4 strains)
[23] = read-out: MIC Range Low, Group C Streptococcus (4 strains)
[24] = read-out: MIC Range High, Streptococcus pyogenes (4 strains)
[25] = read-out: MIC Range Low, Streptococcus pyogenes (4 strains)
[26] = read-out: MIC Range High, Enterococcus faecium (3 strains)
[27] = read-out: MIC Range Low, Enterococcus faecium (3 strains)
[28] = read-out: MIC Range High, Streptococcus pneumonia (5 strains)
[29] = read-out: MIC Range Low, Streptococcus pneumonia (5 strains)

SMILES: Cc1c(C2=CCNCC2)ccn2c(=O)c(C(=O)O)cc(C3CC3)c12 [Example 42, 1-cyclopropyl-9-methyl-4-oxo-8-(1,2,3,6-tetrahydropyridin-4-yl)-4H-quinolizine-3-carboxylic acid]
- MIC ([1]; High of the strain panel, read-out: MIC Range High, Acinetobacter baumannii (12 strains)): > 32 µg/mL
- MIC ([1]; Low of the strain panel, read-out: MIC Range Low, Acinetobacter baumannii (12 strains)): 0.25 µg/mL (≈ 0.771 µM)
- MIC50 ([1]; Median of the strain panel): > 32 µg/mL
- MIC [2, 14]: 2 µg/mL (≈ 6.17 µM)
- MIC [2, 15]: 2 µg/mL (≈ 6.17 µM)
- MIC50 [2]: 2 µg/mL (≈ 6.17 µM)
- MIC ([3]; High of the strain panel, read-out: MIC Range High, Pseudomonas aeruginosa (12 strains)): > 32 µg/mL
- MIC ([3]; Low of the strain panel, read-out: MIC Range Low, Pseudomonas aeruginosa (12 strains)): 1 µg/mL (≈ 3.08 µM)
- MIC50 ([3]; Median of the strain panel): 32 µg/mL (≈ 98.6 µM)
- MIC50 [4]: 0.06 µg/mL (≈ 0.185 µM)
- MIC [4, 16]: 0.06 µg/mL (≈ 0.185 µM)
- MIC [4, 17]: 0.03 µg/mL (≈ 0.0925 µM)
- MIC ([5]; High of the strain panel, read-out: MIC Range High, Klebsiella pneumonia (4 strains)): > 32 µg/mL
- MIC ([5]; Low of the strain panel, read-out: MIC Range Low, Klebsiella pneumonia (4 strains)): 0.12 µg/mL (≈ 0.37 µM)
- MIC50 ([5]; Median of the strain panel): 8 µg/mL (≈ 24.7 µM)
- MIC [6, 18]: 32 µg/mL (≈ 98.6 µM)
- MIC [6, 19]: 0.5 µg/mL (≈ 1.54 µM)
- MIC50 [6]: 16.2 µg/mL (≈ 50.1 µM)
- MIC [7, 20]: 32 µg/mL (≈ 98.6 µM)
- MIC [7, 21]: 4 µg/mL (≈ 12.3 µM)
- MIC50 [7]: 4 µg/mL (≈ 12.3 µM)
- MIC [8, 22]: 4 µg/mL (≈ 12.3 µM)
- MIC [8, 23]: 2 µg/mL (≈ 6.17 µM)
- MIC50 [8]: 2 µg/mL (≈ 6.17 µM)
- MIC ([9]; High of the strain panel, read-out: MIC Range High, Escherichia coli (6 strains)): > 32 µg/mL
- MIC ([9]; Low of the strain panel, read-out: MIC Range Low, Escherichia coli (6 strains)): 0.06 µg/mL (≈ 0.185 µM)
- MIC50 ([9]; Median of the strain panel): 32 µg/mL (≈ 98.6 µM)
- MIC [10, 24]: 8 µg/mL (≈ 24.7 µM)
- MIC [10, 25]: 2 µg/mL (≈ 6.17 µM)
- MIC50 [10]: 3 µg/mL (≈ 9.25 µM)
- MIC [11, 26]: > 32 µg/mL
- MIC [11, 27]: 16 µg/mL (≈ 49.3 µM)
- MIC50 [11]: > 32 µg/mL
- MIC [12, 28]: 8 µg/mL (≈ 24.7 µM)
- MIC [12, 29]: 4 µg/mL (≈ 12.3 µM)
- MIC50 [12]: 4 µg/mL (≈ 12.3 µM)

SMILES: Cc1c(-c2ccc(N)c(F)c2)c(F)cn2c(=O)c(C(=O)[O-])cc(C3CC3)c12.[K+] [Example 1 K salt, potassium 8-(4-amino-3-fluoro-phenyl)-1-cyclopropyl-7-fluoro-9-methyl-4-oxo-4H-quinolizine-3-carboxylate]
- MIC ([1]; read-out: MIC Range High, Acinetobacter baumannii (12 strains)): > 32 µg/mL
- MIC ([1]; read-out: MIC Range Low, Acinetobacter baumannii (12 strains)): 0.25 µg/mL
- MIC50 [1]: 20 µg/mL
- MIC [2, 14]: 2 µg/mL
- MIC [2, 15]: 0.5 µg/mL
- MIC50 [2]: 1 µg/mL
- MIC ([3]; read-out: MIC Range High, Pseudomonas aeruginosa (12 strains)): 32 µg/mL
- MIC ([3]; read-out: MIC Range Low, Pseudomonas aeruginosa (12 strains)): 2 µg/mL
- MIC50 [3]: 16 µg/mL
- MIC50 [4]: ≤ 0.015 µg/mL
- MIC [4, 16]: 0.03 µg/mL
- MIC [4, 17]: ≤ 0.015 µg/mL
- MIC ([5]; read-out: MIC Range High, Klebsiella pneumonia (4 strains)): > 32 µg/mL
- MIC ([5]; read-out: MIC Range Low, Klebsiella pneumonia (4 strains)): 0.5 µg/mL
- MIC50 [5]: 16 µg/mL
- MIC [6, 18]: 0.5 µg/mL
- MIC [6, 19]: ≤ 0.015 µg/mL
- MIC50 [6]: 0.5 µg/mL
- MIC [7, 20]: 4 µg/mL
- MIC [7, 21]: 0.12 µg/mL
- MIC50 [7]: 0.12 µg/mL
- MIC [8, 22]: 0.5 µg/mL
- MIC [8, 23]: 0.12 µg/mL
- MIC50 [8]: 0.25 µg/mL
- MIC ([9]; read-out: MIC Range High, Escherichia coli (6 strains)): > 32 µg/mL
- MIC ([9]; read-out: MIC Range Low, Escherichia coli (6 strains)): 0.06 µg/mL
- MIC50 [9]: > 32 µg/mL
- MIC [10, 24]: 1 µg/mL
- MIC [10, 25]: 0.5 µg/mL
- MIC50 [10]: 0.5 µg/mL
- MIC [11, 26]: 8 µg/mL
- MIC [11, 27]: 1 µg/mL
- MIC50 [11]: 2 µg/mL
- MIC [12, 28]: 0.5 µg/mL
- MIC [12, 29]: 0.5 µg/mL
- MIC50 [12]: 0.5 µg/mL

SMILES: Cc1c(-c2ccc3[nH]ncc3c2)ccn2c(=O)c(C(=O)[O-])cc(C3CC3)c12.[K+] [Ex. 23 K salt]
- half-life ([13]; iv, i.v.): 1.16 h
- AUC(0-inf) ([13]; iv): 2040 ng·h/mL
- Cmax ([13]; iv): 3430 ng/mL
- bioavailability ([13]; po): 85.9%
- half-life ([13]; po, p.o.): 0.988 h
- AUC(0-inf) ([13]; po): 1750 ng·h/mL
- Cmax ([13]; po): 866 ng/mL

SMILES: Cc1c(-c2cc(F)c(N)cc2F)ccn2c(=O)c(C(=O)[O-])cc(C3CC3)c12.[K+] [Ex. 28 K salt]
- half-life ([13]; iv, i.v.): 1.07 h
- AUC(0-inf) ([13]; iv): 1650 ng·h/mL
- Cmax ([13]; iv): 2850 ng/mL
- bioavailability ([13]; po): 43%
- half-life ([13]; po, p.o.): 3.33 h
- AUC(0-inf) ([13]; po): 710 ng·h/mL
- Cmax ([13]; po): 227 ng/mL

SMILES: Cc1c(-c2ccc(O)cc2)ccn2c(=O)c(C(=O)[O-])cc(C3CC3)c12.[K+] [Ex. 46 K salt]
- half-life ([13]; iv, i.v.): 1.07 h
- AUC(0-inf) ([13]; iv): 474 ng·h/mL
- Cmax ([13]; iv): 1060 ng/mL
- bioavailability ([13]; po): 82.1%
- half-life ([13]; po, p.o.): 4.16 h
- AUC(0-inf) ([13]; po): 389 ng·h/mL
- Cmax ([13]; po): 156 ng/mL
